ChEMBL document CHEMBL1130019, “Discovery of potent isoxazoline glycoprotein IIb/IIIa receptor antagonists” (J Med Chem, 1997)

Legend:
[1] = biological target: T1, Integrin alpha-IIb/beta-3 (Homo sapiens, UniProt P05106+P08514); experiment: Inhibition of human platelet aggregation induced by ADP at 100 uM; type: functional
[2] = test system: Integrin alpha-IIb/beta-3 (Canis lupus familiaris); experiment: Inhibition of ADP-mediated platelet aggregation over 6 hr; conditions: concentration not given here
Integrin alpha-M/beta-2 [3] = biological target: T2, Integrin alpha-M/beta-2 (Homo sapiens, UniProt P05107+P11215); experiment: Inhibition of Mac-1 interaction with ICAM; type: protein-complex assay
[4] = biological target: T1, Integrin alpha-IIb/beta-3; experiment: Inhibition of Fibrinogen Receptor integrin alphaIIb-beta3 in ELISA; type: protein-complex assay
Target sequence in this assay (P05106 27-788 limits assumed): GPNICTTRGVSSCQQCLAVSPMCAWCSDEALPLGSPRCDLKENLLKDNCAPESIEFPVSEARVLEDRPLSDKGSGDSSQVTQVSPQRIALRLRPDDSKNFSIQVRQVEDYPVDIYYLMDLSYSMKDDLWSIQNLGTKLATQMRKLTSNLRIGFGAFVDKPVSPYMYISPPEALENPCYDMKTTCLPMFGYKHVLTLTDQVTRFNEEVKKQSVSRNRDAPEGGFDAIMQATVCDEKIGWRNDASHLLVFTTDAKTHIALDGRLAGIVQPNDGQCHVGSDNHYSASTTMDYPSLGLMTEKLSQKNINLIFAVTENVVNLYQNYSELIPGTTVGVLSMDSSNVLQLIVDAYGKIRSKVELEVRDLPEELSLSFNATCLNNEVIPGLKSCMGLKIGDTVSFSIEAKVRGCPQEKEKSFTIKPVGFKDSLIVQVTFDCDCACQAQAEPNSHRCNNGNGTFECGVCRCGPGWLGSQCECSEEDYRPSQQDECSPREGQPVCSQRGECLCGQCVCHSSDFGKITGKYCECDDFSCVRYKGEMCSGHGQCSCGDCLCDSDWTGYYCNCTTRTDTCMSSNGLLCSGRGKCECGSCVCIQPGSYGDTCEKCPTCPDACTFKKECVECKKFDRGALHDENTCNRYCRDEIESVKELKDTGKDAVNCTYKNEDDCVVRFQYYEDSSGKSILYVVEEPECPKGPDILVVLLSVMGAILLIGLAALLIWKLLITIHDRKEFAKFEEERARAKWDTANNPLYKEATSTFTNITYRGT
Target sequence in this assay (P08514 32-887 limits assumed): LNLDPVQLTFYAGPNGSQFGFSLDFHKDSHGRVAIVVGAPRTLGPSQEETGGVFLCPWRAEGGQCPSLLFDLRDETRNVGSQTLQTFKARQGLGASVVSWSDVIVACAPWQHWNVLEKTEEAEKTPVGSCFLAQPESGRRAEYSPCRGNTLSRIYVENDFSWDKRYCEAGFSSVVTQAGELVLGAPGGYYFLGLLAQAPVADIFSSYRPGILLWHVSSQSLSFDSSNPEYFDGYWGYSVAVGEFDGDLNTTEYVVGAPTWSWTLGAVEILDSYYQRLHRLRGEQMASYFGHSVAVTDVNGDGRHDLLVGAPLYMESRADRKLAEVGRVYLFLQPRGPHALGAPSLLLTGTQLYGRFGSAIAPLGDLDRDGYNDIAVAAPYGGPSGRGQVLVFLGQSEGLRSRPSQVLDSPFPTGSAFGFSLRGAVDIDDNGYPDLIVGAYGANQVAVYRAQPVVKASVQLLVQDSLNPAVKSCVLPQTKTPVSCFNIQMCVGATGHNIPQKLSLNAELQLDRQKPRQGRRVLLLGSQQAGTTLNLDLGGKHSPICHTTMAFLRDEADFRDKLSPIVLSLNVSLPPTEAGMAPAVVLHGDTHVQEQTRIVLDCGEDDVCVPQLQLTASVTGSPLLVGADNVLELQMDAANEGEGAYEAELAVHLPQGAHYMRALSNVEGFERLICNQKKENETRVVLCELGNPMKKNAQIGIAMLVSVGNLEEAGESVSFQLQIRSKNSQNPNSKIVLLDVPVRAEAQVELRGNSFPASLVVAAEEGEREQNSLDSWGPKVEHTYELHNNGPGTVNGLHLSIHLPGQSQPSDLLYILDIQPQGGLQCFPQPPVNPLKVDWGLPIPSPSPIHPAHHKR
Target sequence in this assay (P08514 891-1039 limits assumed): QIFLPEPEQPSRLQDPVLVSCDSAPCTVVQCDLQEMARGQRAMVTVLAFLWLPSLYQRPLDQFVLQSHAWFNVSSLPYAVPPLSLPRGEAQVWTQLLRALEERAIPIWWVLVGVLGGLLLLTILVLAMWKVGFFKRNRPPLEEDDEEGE

[5] = Inhibition of interaction between HUVEC cells and Vitronectin; type: cell-based, Homo sapiens
Integrin alpha-4/beta-1 = Integrin alpha-4/beta-1 (Homo sapiens, UniProt P05556+P13612); experiment: Inhibition of VLA-4 integrin alpha4-beta1 interaction with VCAM; type: protein-complex assay
Integrin alpha-M/beta-2 [6] = biological target: T2, Integrin alpha-M/beta-2; experiment: Inhibition of Mac-1 integrin (alphaM-beta2); type: protein-complex assay
Integrin alpha-5/beta-1 = Integrin alpha-5/beta-1 (Homo sapiens, UniProt P05556+P08648); experiment: Inhibition of interaction between HUVEC cells and fibronectin; type: cell-based
[7] = biological target: T1, Integrin alpha-IIb/beta-3; experiment: Inhibition of [125I]fibrinogen binding to activated human platelets; type: functional
Target sequence in this assay (P05106 27-788 limits assumed): as the sequence (P05106 27-788 limits assumed) above
Target sequence in this assay (P08514 32-887 limits assumed): as the sequence (P08514 32-887 limits assumed) above
Target sequence in this assay (P08514 891-1039 limits assumed): as the sequence (P08514 891-1039 limits assumed) above

T2 sequence (P05107 23-769 limits assumed, other chains not shown): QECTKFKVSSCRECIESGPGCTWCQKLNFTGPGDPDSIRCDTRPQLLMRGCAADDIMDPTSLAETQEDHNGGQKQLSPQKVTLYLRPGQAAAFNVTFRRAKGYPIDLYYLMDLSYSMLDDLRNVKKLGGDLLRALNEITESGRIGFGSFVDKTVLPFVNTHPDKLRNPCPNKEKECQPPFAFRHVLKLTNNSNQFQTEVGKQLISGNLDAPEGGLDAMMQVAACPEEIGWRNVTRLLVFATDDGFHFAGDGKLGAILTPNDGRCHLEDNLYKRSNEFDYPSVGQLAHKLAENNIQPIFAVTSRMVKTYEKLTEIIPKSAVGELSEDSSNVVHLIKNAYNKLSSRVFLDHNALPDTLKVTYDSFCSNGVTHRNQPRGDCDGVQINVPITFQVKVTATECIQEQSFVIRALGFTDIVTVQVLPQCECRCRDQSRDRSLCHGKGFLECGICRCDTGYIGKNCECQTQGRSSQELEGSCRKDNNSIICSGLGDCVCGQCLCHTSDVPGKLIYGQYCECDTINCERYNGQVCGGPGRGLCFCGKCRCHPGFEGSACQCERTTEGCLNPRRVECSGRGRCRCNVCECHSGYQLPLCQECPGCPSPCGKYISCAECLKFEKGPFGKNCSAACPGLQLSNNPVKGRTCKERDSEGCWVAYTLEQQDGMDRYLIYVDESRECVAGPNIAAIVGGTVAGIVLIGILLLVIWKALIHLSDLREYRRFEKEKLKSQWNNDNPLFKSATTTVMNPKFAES
Sequence of Integrin alpha-5/beta-1 (P05556 21-798 limits assumed): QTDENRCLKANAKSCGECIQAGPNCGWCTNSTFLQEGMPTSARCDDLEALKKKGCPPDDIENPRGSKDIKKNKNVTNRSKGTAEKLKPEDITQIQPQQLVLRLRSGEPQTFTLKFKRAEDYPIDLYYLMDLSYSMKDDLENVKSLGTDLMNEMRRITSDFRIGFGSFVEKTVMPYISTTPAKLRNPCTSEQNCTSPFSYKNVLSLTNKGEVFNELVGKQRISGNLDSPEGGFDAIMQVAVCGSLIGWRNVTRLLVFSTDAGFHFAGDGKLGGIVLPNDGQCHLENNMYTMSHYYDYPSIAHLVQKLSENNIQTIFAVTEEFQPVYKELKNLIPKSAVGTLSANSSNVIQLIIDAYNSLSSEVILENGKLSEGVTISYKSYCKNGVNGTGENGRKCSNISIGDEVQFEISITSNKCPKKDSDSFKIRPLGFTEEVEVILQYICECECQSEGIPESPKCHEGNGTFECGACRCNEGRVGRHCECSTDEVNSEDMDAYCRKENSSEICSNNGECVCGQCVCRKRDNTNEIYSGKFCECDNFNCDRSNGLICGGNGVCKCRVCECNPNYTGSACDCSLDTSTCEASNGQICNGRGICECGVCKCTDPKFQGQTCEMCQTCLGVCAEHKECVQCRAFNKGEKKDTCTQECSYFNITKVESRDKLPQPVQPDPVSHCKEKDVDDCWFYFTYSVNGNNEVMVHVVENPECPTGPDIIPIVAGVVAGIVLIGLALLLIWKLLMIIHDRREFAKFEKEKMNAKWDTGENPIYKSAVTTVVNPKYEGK
Sequence of Integrin alpha-5/beta-1 (P08648 42-894 limits assumed): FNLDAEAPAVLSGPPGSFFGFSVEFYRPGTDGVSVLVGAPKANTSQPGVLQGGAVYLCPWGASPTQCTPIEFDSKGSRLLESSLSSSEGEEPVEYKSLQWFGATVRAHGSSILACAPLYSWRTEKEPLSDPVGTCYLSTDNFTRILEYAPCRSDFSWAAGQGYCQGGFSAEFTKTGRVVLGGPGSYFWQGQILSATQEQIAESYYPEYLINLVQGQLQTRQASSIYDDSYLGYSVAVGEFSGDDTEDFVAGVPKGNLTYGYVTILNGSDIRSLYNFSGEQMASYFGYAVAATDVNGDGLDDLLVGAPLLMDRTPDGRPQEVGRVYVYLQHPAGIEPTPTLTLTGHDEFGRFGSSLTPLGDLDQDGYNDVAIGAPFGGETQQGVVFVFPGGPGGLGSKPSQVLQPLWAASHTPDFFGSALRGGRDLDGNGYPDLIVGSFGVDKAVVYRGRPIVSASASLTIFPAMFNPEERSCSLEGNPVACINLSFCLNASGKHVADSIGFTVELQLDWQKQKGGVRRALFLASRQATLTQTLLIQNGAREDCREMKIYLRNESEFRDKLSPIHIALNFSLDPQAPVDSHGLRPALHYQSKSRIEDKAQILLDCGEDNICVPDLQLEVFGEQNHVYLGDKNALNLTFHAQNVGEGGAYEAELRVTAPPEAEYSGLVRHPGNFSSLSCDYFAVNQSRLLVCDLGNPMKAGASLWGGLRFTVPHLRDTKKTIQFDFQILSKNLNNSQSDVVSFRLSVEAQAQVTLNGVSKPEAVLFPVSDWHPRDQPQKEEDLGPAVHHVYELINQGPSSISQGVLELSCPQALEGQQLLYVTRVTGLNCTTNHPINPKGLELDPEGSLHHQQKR
Sequence of Integrin alpha-5/beta-1 (P08648 895-1049 limits assumed): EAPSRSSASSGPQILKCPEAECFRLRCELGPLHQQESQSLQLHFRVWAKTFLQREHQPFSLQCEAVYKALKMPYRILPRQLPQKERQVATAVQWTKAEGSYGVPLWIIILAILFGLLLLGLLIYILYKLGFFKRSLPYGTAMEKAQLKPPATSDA

`O=C(O)CCCN1C(=O)CC2(CC(CCC3CCNCC3)=NO2)C1=O` (stereo unspecified) showed an inhibition [1] of 16.3%.
With `O=C(O)CCN1C(=O)CC2(CC(CCC3CCNCC3)=NO2)C1=O` (stereo unspecified) the inhibition [1] was 16.6%.
With `O=C(O)CCCN1C(=O)CC2(CC(CCCC3CCNCC3)=NO2)C1=O` (stereo unspecified) the inhibition [1] was 24%.
For `CCOC(=O)CCNC(=O)CC1CC(c2ccc(C(=N)N)cc2)=NO1` (stereo unspecified), the inhibition [2] was 90%.
`N=C(N)c1ccc(C2=NOC(CC(=O)NCCC(=O)O)C2)cc1` (stereo unspecified) gave an IC50 (Integrin alpha-M/beta-2 [3]) of 100 µM, an IC50 [4] of 0.0011 µM and an IC50 [5] of 200 µM. The IC50 (Integrin alpha-4/beta-1) was > 100 µM, the IC50 (Integrin alpha-M/beta-2 [6]) was > 100 µM and the IC50 (Integrin alpha-5/beta-1) was 180 µM. It also gave an IC50 [7] of 0.01 µM.
